The source of these data is patent US20260335345A1, “COMPOSITION FOR IMPROVING NICOTINAMIDE MONONUCLEOTIDE PRODUCTION” (MEIJI HOLDINGS CO., LTD., priority 2022, published 2026).

Series [1] concerns inflammatory bowel disease. The following applies: in vivo; cited from earlier work.
For series [2] the following is noted: NMN administration; cited from earlier work.
The subject of series [3] is aged mice. The following applies: cited from earlier work.
Series [4] deals with mice with type II diabetes. The following applies: type II diabetes induced by a high-fat diet; cited from earlier work.
The subject of series [5] is aged mice. The following applies: cited from earlier work. The source holds these as a separate data set.
Series [6] has as its system human feces #1 to #3 (human fecal-derived gut microbiota). Put plainly: NMN production by human fecal cultures in GAM evaluation medium with 0.5% carbohydrate (Test Example 2). In kind it is cell-based. The following applies: 37 °C, anaerobic, 12 hours; for NMN Concentration (Avg Value): GAM medium, average of human feces #1 to #3, only substance of its classification; for NMN concentration in culture (FIG. 2), in words: average of human feces #1 to #3. How it is done:
1 mg of human feces (#1 to 3) collected from different individuals was added to 1 mL of GAM medium supplemented with glucose SO that the final concentration was 0.5%, and cultured at 37 °C in an anaerobic glove box for 12 hours, and then the NMN concentration in the culture solution was measured. As the GAM medium, GAM semi-fluid medium for saccharolysis (manufactured by Nissui Pharmaceutical Co., Ltd.) was dissolved in water to a predetermined concentration, filtered through a 0.8 μm filter, and autoclaved at 115 °C for 15 minutes. The NMN concentration was measured by the following method. That is, first, the supernatant obtained by centrifuging the culture solution was filtered through a 0.22 μm filter, and then the filtrate was mixed with methanol (final concentration: 80 v/v %) and allowed to stand on ice for 30 minutes. Next, the supernatant obtained by centrifuging this was dried using a centrifugal evaporator. Next, the obtained dried product was dissolved in an ammonium acetate solution and subjected to a liquid chromatograph mass spectrometer (LC-MS/MS) for analysis under the following conditions to measure the NMN concentration. (LC-MS/MS analysis conditions)
First, each evaluation medium was prepared by adding any one of the carbohydrates shown in Table 1 below to the GAM medium (without glucose added) so that the final concentration was 0.5%. As a comparative example, an evaluation medium to which distilled water (DW) was added instead of carbohydrate was also prepared. Next, 1 mg of the same human feces #1 to #3 as in Test Example 1 was added to 1 mL of the evaluation medium, and cultured at 37 °C in an anaerobic glove box for 12 hours. After culturing, the NMN concentration in the culture solution was measured by liquid chromatograph mass spectrometer (LC-MS/MS) by the method described in Test Example 1.

The conditions of series [7]: cited from earlier work.
Series [8] deals with human gut microbiota in human flora mice. Put plainly: NMN concentration in feces of human flora mice given kestose (Test Example 4). In kind it is in vivo. The following applies: 5% kestose aqueous solution ad libitum. How it is done:
1 mg of human feces (#1 to 3) collected from different individuals was added to 1 mL of GAM medium supplemented with glucose SO that the final concentration was 0.5%, and cultured at 37 °C in an anaerobic glove box for 12 hours, and then the NMN concentration in the culture solution was measured. As the GAM medium, GAM semi-fluid medium for saccharolysis (manufactured by Nissui Pharmaceutical Co., Ltd.) was dissolved in water to a predetermined concentration, filtered through a 0.8 μm filter, and autoclaved at 115 °C for 15 minutes. The NMN concentration was measured by the following method. […]
Using kestose (manufactured by Meiji Food Materia Co., Ltd.), the effect of improving NMN production in the intestine (large intestine) of human flora mice, which were germ-free mice transplanted with human gut microbiota, was evaluated. […] Next, the mixed supernatant was dried using a centrifugal evaporator, the obtained dried product was dissolved in an ammonium acetate solution, filtered through a 0.22 μm filter, and then the NMN concentration in the filtrate was measured by liquid chromatograph mass spectrometer (LC-MS/MS) by the method described in Test Example 1 to calculate the NMN concentration (ng/mL) in the feces.

On to `NC(=O)c1ccc[n+]([C@@H]2O[C@H](COP(=O)([O-])OP(=O)(O)OC[C@H]3O[C@@H](n4cnc5c(N)ncnc54)[C@H](O)[C@@H]3O)[C@@H](O)[C@H]2O)c1` [NAD, nicotinamide adenine dinucleotide], for which the “effect in improving inflammatory bowel disease” value in series [1] was “effective in improving inflammatory bowel disease”.
For `NC(=O)c1ccc[n+]([C@@H]2O[C@H](COP(=O)([O-])O)[C@@H](O)[C@H]2O)c1` [NMN, β-nicotinamide mononucleotide], the “age-related declines in organ function and dementia of the Alzheimer type” value in series [2] was “improved age-related declines in liver function, renal function, skeletal muscle function, and cardiac function, as well as dementia of the Alzheimer type”. The “effects of NMN administration in aged mice” value with aged mice [3] is “suppressed age-related obesity, improved energy metabolism, and improved insulin resistance, lipid metabolism, eye function, bone density, and immune function”. Further, the “age-related changes in gene expression” value in the series on aged mice [3] (skeletal muscle, fat, and liver) is “suppression of age-related changes in gene expression in skeletal muscle, fat, and liver”. For the same molecule, in series [4], the “gene expression related to oxidative stress, inflammatory response, and circadian rhythm” value is “restored gene expression related to oxidative stress, inflammatory response, and circadian rhythm”; the “glucose tolerance, hepatic insulin sensitivity” value is “improved glucose tolerance disorder and hepatic insulin sensitivity”. In addition, the constipation entry with aged mice [5] is “improved constipation”.
`O=C(CO)[C@@H](O)[C@@H](O)[C@H](O)CO` [Tagatose, D-Tagatose]: the “NMN Concentration (Avg Value)” value in series [6] was found to be 100 ng/mL.
Turning to `OC[C@H]1O[C@@H](O[C@H]2[C@H](O)[C@@H](O)C(O)O[C@@H]2CO)[C@H](O)[C@@H](O)[C@@H]1O` (stereo partly drawn) [cellobiose, D-Cellobiose], in series [6], the “NMN concentration in culture (FIG. 2), in words” value (from here on “NMN concentration in culture”) was “higher NMN concentrations than glucose and sucrose”.
In the case of `O=C[C@H](O)[C@@H](O)[C@H](O)[C@H](O)CO` [glucose, D-Glucose], in series [7], the “absorption in the small intestine” value is on record as “completely absorbed into the body in the small intestine”; the “decomposition and absorption in the upper digestive tract in vivo” value was “decomposed and absorbed in the upper digestive tract in vivo”.
Regarding `OC[C@H]1O[C@@](CO)(OC[C@@]2(O[C@H]3O[C@H](CO)[C@@H](O)[C@H](O)[C@H]3O)O[C@H](CO)[C@@H](O)[C@@H]2O)[C@@H](O)[C@@H]1O` [kestose, 1-Kestose], the “amount of NMN produced by human gut microbiota in vivo” value in series [8] was “increases the amount of NMN produced by human gut microbiota in vivo”. For the same molecule, the “NMN concentration in feces vs Day 0” value in series [8] (Day 1, 3, and 9 (FIG. 4)) is “higher on Day 1, 3, and 9”. In series [6], the “NMN concentration in culture” value was “higher NMN concentrations than glucose and sucrose”.
Consider `OC[C@H]1O[C@@H](O[C@H]2[C@H](O)[C@@H](O)[C@@H](O[C@]3(CO)O[C@H](CO)[C@@H](O)[C@@H]3O)O[C@@H]2CO)[C@H](O)[C@@H](O)[C@H]1O` [lactosucrose, Lactosucrose], for which, in series [6], the “NMN concentration in culture” value was “higher NMN concentrations than glucose and sucrose”.
Turning to `OC[C@H]1O[C@H](OC[C@H]2O[C@H](O[C@]3(CO)O[C@H](CO)[C@@H](O)[C@@H]3O)[C@H](O)[C@@H](O)[C@@H]2O)[C@H](O)[C@@H](O)[C@H]1O` [raffinose, Raffinose], the “NMN concentration in culture” value in series [6] is “higher NMN concentrations than glucose and sucrose”.
For `CC(=O)N[C@H]1[C@H]([C@H](O)[C@H](O)CO)O[C@@](O[C@H]2[C@@H](O)[C@@H](CO)O[C@@H](O[C@H]3[C@H](O)[C@@H](O)C(O)O[C@@H]3CO)[C@@H]2O)(C(=O)O)C[C@@H]1O` (some centres unmarked) [sialyllactose, 3′-Sialyllactose], in series [6], the “NMN concentration in culture” value is reported as “relatively low NMN concentration”.
Take `OC[C@H]1O[C@@](CO)(O[C@H]2O[C@H](CO)[C@@H](O)[C@H](O)[C@H]2O)[C@@H](O)[C@@H]1O` [sucrose, D-Sucrose]: in series [7], the “decomposition and absorption in the upper digestive tract in vivo” value is “decomposed and absorbed in the upper digestive tract in vivo”.
As for `O=C[C@H](O)[C@@H](O)[C@H](O)CO` [xylose], in series [7], the “absorption in the small intestine” value is “completely absorbed into the body in the small intestine”.
As for inulin, the “NMN Concentration (Avg Value)” value in series [6] was determined as 70 ng/mL.
